{"source": "patent US9095136B2", "about": "“2-IODO imidazole-derivatives” (BAYER INTELLECTUAL PROPERTY GMBH, priority 2011, dated 2015)", "key": {"Puccinia recondita": {"system": "Puccinia recondita", "experiment": "Example T: preventative in vivo test with Puccinia recondita (brown rust on wheat)", "conditions": "500 ppm, evaluation 10 days after inoculation", "procedure": "The active compounds tested are prepared by homogenization in a mixture of acetone/Tween/DMSO and then diluted with water to the desired active compound concentration. Wheat plants (cultivar “Scipion”), sown in a 50/50 peat/pozzolana soil substrate and cultivated at 22° C. (12 h)/20° C. (12 h), are treated at the 1-leaf stage (height 10 cm) by spraying with the active compound, prepared as above. As a control, plants are treated with the mixture of acetone/Tween/DMSO/water without the active compound. After 24 hours, the plants are inoculated by spraying the leaves with an aqueous suspension of Puccinia recondita spores."}, "Septoria tritici [1]": {"system": "Septoria tritici", "experiment": "Example U: preventative in vivo test with Septoria tritici (leaf blotch disease on wheat)", "conditions": "500 ppm, evaluation 21 to 28 days after inoculation", "procedure": "The active compounds tested are prepared by homogenization in a mixture of acetone/Tween/DMSO and then diluted with water to the desired active compound concentration. Wheat plants (cultivar “Scipion”), sown in a 50/50 peat/pozzolana soil substrate and cultivated at 22° C. (12 h)/20° C. (12 h), are treated at the 1-leaf stage (height 10 cm) by spraying with the active compound, prepared as above. As a control, plants are treated with the mixture of acetone/Tween/DMSO/water without the active compound. After 24 hours, the plants are inoculated by spraying the leaves with an aqueous suspension of cryogenically preserved Septoria tritici spores."}, "Sphaerotheca fuliginea [2]": {"system": "Sphaerotheca fuliginea", "experiment": "Example V: preventative in vivo test with Sphaerotheca fuliginea (powdery mildew on cucumber)", "conditions": "500 ppm, evaluation 12 days after inoculation", "procedure": "The active compounds tested are prepared by homogenization in a mixture of acetone/Tween/DMSO and then diluted with water to the desired active compound concentration. Cucumber plants (cultivar “Vert petit de Paris”), sown in a 50/50 peat/pozzolana soil substrate and cultivated at 24° C., are treated at the Z11 cotyledon stage by spraying with the active compound, prepared as above. As a control, plants are treated with the mixture of acetone/Tween/DMSO/water without the active compound. After 24 hours, the plants are inoculated by spraying the leaves with an aqueous suspension of Sphaerotheca fuliginea spores. The inoculated cucumber plants are incubated at about 20° C./25° C. and a relative atmospheric humidity of 60/70%."}, "Uromyces appendiculatus [3]": {"system": "Uromyces appendiculatus", "experiment": "Example W: preventative in vivo test with Uromyces appendiculatus (bean rust)", "conditions": "500 ppm, evaluation 10 days after inoculation", "procedure": "The active compounds tested are prepared by homogenization in a mixture of acetone/Tween/DMSO and then diluted with water to the desired active compound concentration. Bean plants (cultivar “Saxa”), sown in a 50/50 peat/pozzolana soil substrate and cultivated at 24° C., are treated at the 2-leaf stage (height 9 cm) by spraying with the active compound, prepared as above. As a control, plants are treated with the mixture of acetone/Tween/DMSO/water without the active compound. After 24 hours, the plants are inoculated by spraying the leaves with an aqueous suspension of Uromyces appendiculatus spores."}, "[4]": {"experiment": "log P by HPLC on reversed-phase columns (EEC directive 79/831 Annex V.A8)", "format": "physicochemical", "procedure": "The log P values were measured according to EEC directive 79/831 Annex V.A8 by HPLC (High Performance Liquid Chromatography) on reversed-phase columns, using the methods below: […] Calibration was carried out using unbranched alkan-2-ones (having from 3 to 16 carbon atoms) with known log P values (the log P values were determined by the retention times using linear interpolation between two successive alkanones). The lambda maX values were determined in the maxima of the chromatographic signals using the UV spectra from 200 nm to 400 nm."}, "Septoria tritici [5]": {"system": "Septoria tritici", "experiment": "Example I: Septoria tritici test (wheat)/protective", "format": "in vivo", "conditions": "protective, 500 ppm, evaluation 21 days after inoculation", "procedure": "Solvent: 49 parts by weight of N,N-dimethylacetamide Emulsifier: 1 part by weight of alkylaryl polyglycol ether To produce a suitable preparation of active compound, 1 part by weight of active compound is mixed with the stated amounts of solvent and emulsifier, and the concentrate is diluted with water to the desired concentration. To test for protective activity, young plants are sprayed with the preparation of active compound at the stated application rate. After the spray coating has dried on, the plants are sprayed with a spore suspension of Septoria tritici."}, "Phytophthora infestans": {"system": "Phytophthora infestans", "format": "in vivo", "conditions": "tomato, preventative, 500 ppm, evaluation 5 days after inoculation"}, "Sphaerotheca fuliginea [6]": {"system": "Sphaerotheca fuliginea", "experiment": "Example B: Sphaerotheca test (cucumber)/protective", "format": "in vivo", "conditions": "protective, 500 ppm, evaluation 7 days after inoculation", "procedure": "Solvent: 49 parts by weight of N,N-dimethylformamide Emulsifier: 1 part by weight of alkylaryl polyglycol ether To produce a suitable preparation of active compound, 1 part by weight of active compound is mixed with the stated amounts of solvent and emulsifier, and the concentrate is diluted with water to the desired concentration. To test for protective activity, young cucumber plants are sprayed with the preparation of active compound at the stated application rate. 1 day after the treatment, the plants are inoculated with a spore suspension of Sphaerotheca fuliginea. The plants are then placed in a greenhouse at 70% relative air humidity and a temperature of 23° C."}, "Pyricularia oryzae": {"system": "Pyricularia oryzae", "format": "in vivo", "conditions": "rice, protective, 500 ppm, evaluation 7 days after inoculation"}, "Uromyces appendiculatus [7]": {"system": "Uromyces appendiculatus", "experiment": "Example E: Uromyces test (bean)/protective", "format": "in vivo", "conditions": "protective, 10 ppm, evaluation 10 days after inoculation", "procedure": "Solvents: 24.5 parts by weight of acetone • 24.5 parts by weight of dimethylacetamide Emulsifier: 1 part by weight of alkylaryl polyglycol ether To produce a suitable preparation of active compound, 1 part by weight of active compound is mixed with the stated amounts of solvent and emulsifier, and the concentrate is diluted with water to the desired concentration. To test for protective activity, young plants are sprayed with the preparation of active compound at the stated application rate. […] The plants are then placed in a greenhouse at about 21° C. and a relative atmospheric humidity of about 90%."}}, "note": "Read-outs that look alike come from different tables or passages of the source. Marks after values point to notes of the source that are not given here."}
{"smiles": "Fc1ccc(C2(Cn3ccnc3I)OC2c2ccccc2Cl)c(Cl)c1", "note": "(mixture of isomers) [Example 15]", "values": [{"measurement": "Efficacy %", "setting": "Puccinia recondita", "result": 100, "unit": "%"}, {"measurement": "Efficacy %", "setting": "Septoria tritici [1]", "result": 86, "unit": "%"}, {"measurement": "Efficacy %", "setting": "Sphaerotheca fuliginea [2]", "result": 98, "unit": "%"}, {"measurement": "Efficacy %", "setting": "Uromyces appendiculatus [3]", "result": 100, "unit": "%"}]}
{"smiles": "Fc1cc(Cl)ccc1C1(Cn2ccnc2I)OC1c1ccccc1Cl", "note": "(stereo not drawn) [Example 10]", "values": [{"measurement": "logP", "setting": "[4]; pH 2.7", "result": "3.23^[a]"}, {"measurement": "Efficacy %", "setting": "Septoria tritici [1]", "result": 96, "unit": "%"}, {"measurement": "Efficacy %", "setting": "Sphaerotheca fuliginea [2]", "result": 98, "unit": "%"}]}
{"smiles": "Fc1ccc(C2(CBr)OC2c2ccccc2Cl)c(F)c1", "note": "(stereo not drawn) [2-(bromomethyl)-3-(2-chlorophenyl)-2-(2,4-difluorophenyl)oxirane]", "values": [{"measurement": "log P(HCOOH)", "setting": "[4]; pH 2.7", "result": 5.00}, {"measurement": "chromatographic logP", "setting": "[4]; pH 2.7, log P(HCOOH)", "result": 4.61}]}
{"smiles": "OC(Cc1c(Cl)cccc1I)(Cn1ccnc1I)C1(Cl)CC1", "note": "(stereo not drawn) [Example 18]", "values": [{"measurement": "logP", "setting": "[4]; pH 2.7", "result": 3.04}, {"measurement": "logP", "setting": "[4]; pH 7.8", "result": 4}, {"measurement": "Efficacy %", "setting": "Sphaerotheca fuliginea [2]", "result": 100, "unit": "%"}, {"measurement": "Efficacy %", "setting": "Uromyces appendiculatus [3]", "result": 100, "unit": "%"}]}
{"smiles": "Fc1ccc(C2(Cn3ccnc3I)OC2c2ccccc2Cl)c(Cl)c1", "note": "(stereo not drawn) [Example 16]", "values": [{"measurement": "logP", "setting": "[4]; pH 2.7", "result": "3.13^[a]"}]}
{"smiles": "Fc1ccc(C(=Cc2ccccc2Cl)CBr)c(F)c1", "note": "[1-[3-bromo-1-(2-chlorophenyl)prop-1-en-2-yl]-2,4-difluorobenzene]", "values": [{"measurement": "log P(HCOOH)", "setting": "[4]; pH 2.7", "result": 5.25}, {"measurement": "chromatographic logP", "setting": "[4]; pH 2.7, log P(HCOOH)", "result": 4.8}]}
{"smiles": "Fc1ccc(C2(Cn3ccnc3I)OC2c2ccccc2Cl)c(F)c1", "note": "(stereo not drawn) [Example 12, 1-{[3-(2-chlorophenyl)-2-(2,4-difluorophenyl)oxiran-2-yl]methyl}-2-iodo-1H-imidazole]", "values": [{"measurement": "log P(HCOOH)", "setting": "[4]; pH 2.7", "result": 3.31}, {"measurement": "chromatographic logP", "setting": "[4]; pH 2.7, log P(HCOOH)", "result": 2.92}, {"measurement": "chromatographic logP", "setting": "[4]; pH 2.7, logP", "result": 2.92}, {"measurement": "Eff. %", "setting": "Septoria tritici [5]", "result": 71, "unit": "%"}, {"measurement": "Efficacy %", "setting": "Phytophthora infestans", "result": 88, "unit": "%"}, {"measurement": "Efficacy %", "setting": "Puccinia recondita", "result": 93, "unit": "%"}, {"measurement": "Efficacy %", "setting": "Septoria tritici [1]", "result": 100, "unit": "%"}, {"measurement": "Efficacy %", "setting": "Sphaerotheca fuliginea [2]", "result": 100, "unit": "%"}, {"measurement": "Efficacy %", "setting": "Uromyces appendiculatus [3]", "result": 99, "unit": "%"}]}
{"smiles": "CC(=Cc1ccccc1Cl)c1ccc(F)cc1F", "note": "[1-[1-(2-chlorophenyl)prop-1-en-2-yl]-2,4-difluorobenzene]", "values": [{"measurement": "chromatographic logP", "setting": "[4]; pH 2.7, HPLC/MS, major diastereoisomer of the mixture, read-out: log P(HCOOH)", "result": 5.05}, {"measurement": "chromatographic logP", "setting": "[4]; pH 2.7, HPLC/MS, minor diastereoisomer of the mixture, read-out: log P(HCOOH)", "result": 5.34}]}
{"smiles": "Fc1ccc(C2(Cn3ccnc3I)OC2c2ccccc2Cl)cc1", "note": "(stereo not drawn) [Example 7]", "values": [{"measurement": "logP", "setting": "[4]; pH 2.7", "result": "2.73^[a]"}]}
{"smiles": "OC(Cn1ccnc1I)(c1ccc(F)cc1F)C1(Oc2ccc(F)cc2)CC1", "note": "(stereo not drawn) [Example 5]", "values": [{"measurement": "Eff. %", "setting": "Sphaerotheca fuliginea [6]", "result": 88, "unit": "%"}, {"measurement": "Eff. %", "setting": "Pyricularia oryzae", "result": 95, "unit": "%"}]}
{"smiles": "Fc1ccc([C@]2(Cn3ccnc3I)O[C@@H]2c2ccccc2Cl)c(F)c1", "note": "(relative stereo) [Example 13, rel-1-{[(2R,3R)-3-(2-chlorophenyl)-2-(2,4-difluorophenyl)oxiran-2-yl]methyl}-2-iodo-1H-imidazole]", "values": [{"measurement": "chromatographic logP", "setting": "[4]; pH 2.7, log P(HCOOH)", "result": 2.86}, {"measurement": "chromatographic logP", "setting": "[4]; pH 2.7, logP", "result": 2.86}, {"measurement": "Efficacy %", "setting": "Phytophthora infestans", "result": 98, "unit": "%"}]}
{"smiles": "Fc1cc(Cl)ccc1C1(Cn2ccnc2I)OC1c1ccccc1Cl", "note": "(mixture of isomers) [Example 9]", "values": [{"measurement": "Efficacy %", "setting": "Puccinia recondita", "result": 86, "unit": "%"}, {"measurement": "Efficacy %", "setting": "Septoria tritici [1]", "result": 100, "unit": "%"}, {"measurement": "Efficacy %", "setting": "Sphaerotheca fuliginea [2]", "result": 100, "unit": "%"}, {"measurement": "Efficacy %", "setting": "Uromyces appendiculatus [3]", "result": 93, "unit": "%"}]}
{"smiles": "Fc1ccc(C2(Cn3ccnc3I)OC2c2ccccc2Cl)c(Cl)c1", "note": "(stereo not drawn) [Example 17]", "values": [{"measurement": "logP", "setting": "[4]; pH 2.7", "result": "3.68^[a]"}, {"measurement": "Eff. %", "setting": "Uromyces appendiculatus [7]", "result": 75, "unit": "%"}, {"measurement": "Efficacy %", "setting": "Puccinia recondita", "result": 100, "unit": "%"}, {"measurement": "Efficacy %", "setting": "Septoria tritici [1]", "result": 97, "unit": "%"}, {"measurement": "Efficacy %", "setting": "Sphaerotheca fuliginea [2]", "result": 100, "unit": "%"}, {"measurement": "Efficacy %", "setting": "Uromyces appendiculatus [3]", "result": 100, "unit": "%"}]}
{"smiles": "OC(Cn1ccnc1I)(c1ccc(Cl)cc1)C1(Oc2ccc(F)cc2)CC1", "note": "(stereo not drawn) [Example 3]", "values": [{"measurement": "logP", "setting": "[4]; pH 2.7", "result": 2.55}, {"measurement": "logP", "setting": "[4]; pH 7.8", "result": 3.55}]}
